Data: patent US20260317319A1, “NOVEL ERGOLINES AND METHODS OF TREATING MOOD DISORDERS” (Gilgamesh Pharma Inc., priority 2023, published 2026)
Where two headings read alike, the source gives them in different places.

Key:
5-HT2A receptor [1] = biological target: T1, 5-HT2A receptor (Homo sapiens, UniProt P28223); assay: cell-based; type: cell-based; details: beta-arrestin recruitment; for EC50: PathHunter, read-out: 5-HT2A Arrestin EC50; for Emax: read-out: 5-HT2A Arrestin % Act @ Max Dose
Summary of the method: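 Agonist activity expressed as percent of maximal control ligand signal after vehicle subtraction, from chemiluminescence (RLU). Cells carry ProLink-tagged 5-HT2A plus β-arrestin fused to β-gal deletion mutant; ligand-driven arrestin binding restores β-galactosidase activity (PathHunter). Cells pre-incubated at 37° C.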

5-HT1B receptor = biological target: T2, 5-HT1B receptor (Homo sapiens, UniProt P28222); assay: cAMP accumulation functional assay at 5-HT1B; type: cell-based; details: agonist, cAMP accumulation; for Emax: max dose, read-out: 5-HT1B % Act @ Max Dose
T2 construct: expressed in transfected cells
T2 sequence (P28222 whole entry): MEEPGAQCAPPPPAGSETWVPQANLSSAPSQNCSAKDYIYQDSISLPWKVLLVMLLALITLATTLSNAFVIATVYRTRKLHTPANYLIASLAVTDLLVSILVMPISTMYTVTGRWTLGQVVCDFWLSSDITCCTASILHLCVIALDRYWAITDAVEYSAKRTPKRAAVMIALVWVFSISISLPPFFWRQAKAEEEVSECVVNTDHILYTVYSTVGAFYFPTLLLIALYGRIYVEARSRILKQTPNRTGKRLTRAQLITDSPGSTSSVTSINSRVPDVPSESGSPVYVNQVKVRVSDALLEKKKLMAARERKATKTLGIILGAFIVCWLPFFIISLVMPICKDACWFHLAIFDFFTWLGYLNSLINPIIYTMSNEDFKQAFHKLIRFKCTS
Summary of the method: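 Stably transfected human 5-HT1B cells were incubated 60 min at room temperature, after which detection reagent was applied for another 60 min at RT. The read-out was cAMP accumulation, used as a measure of agonist activity.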

5-HT2B receptor = biological target: T3, 5-HT2B receptor (Homo sapiens, UniProt P41595); assay: cell-based; type: cell-based; details: Ca2+ flux; for Emax: HEK293, agonist, read-out: 5-HT2B % Act @ Max Dose; for EC50: HEK293
T3 construct: expressed in transfected cells; host or cells: HEK293, stably transfected
T3 sequence (P41595 whole entry): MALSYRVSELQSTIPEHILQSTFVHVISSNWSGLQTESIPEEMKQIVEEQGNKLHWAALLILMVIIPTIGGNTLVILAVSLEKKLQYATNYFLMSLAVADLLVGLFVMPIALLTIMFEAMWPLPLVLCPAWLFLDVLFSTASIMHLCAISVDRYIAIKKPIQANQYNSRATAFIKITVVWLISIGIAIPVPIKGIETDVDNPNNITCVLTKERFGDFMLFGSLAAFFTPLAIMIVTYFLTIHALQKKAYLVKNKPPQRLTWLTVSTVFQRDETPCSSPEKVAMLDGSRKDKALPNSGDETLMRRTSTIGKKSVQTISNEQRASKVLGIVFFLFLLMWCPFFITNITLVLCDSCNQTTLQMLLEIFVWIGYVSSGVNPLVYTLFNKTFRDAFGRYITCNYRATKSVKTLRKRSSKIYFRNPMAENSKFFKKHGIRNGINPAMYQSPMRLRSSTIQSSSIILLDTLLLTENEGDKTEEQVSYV
Summary of the method: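 FLIPR Tetra fluorescence read-out of calcium flux after compound addition. Receptor-expressing stable lines were used (HEK293 for 2A/2B; CHO with Gα15 for 1A), dye-loaded with Fluo-4 Direct and 2.5 mM final probenecid, 50 min at 37 °C.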

in vitro [2] = type: in vitro ADME, mouse; details: for microsomal CLint: read-out: Intrinsic clearance (Clint); for half-life: read-out: half-life (t1/2)
Source text: MLM Stability Pooled MLM from male CD-1 mice (BIOIVT M00501) were used.

5-HT2A receptor [3] = biological target: T1, 5-HT2A receptor; assay: cell-based; type: cell-based; design: expressed in transfected cells; host or cells: HEK293, stably transfected; details: Ca2+ flux; for Emax: HEK293, agonist, HEK293, max dose, read-out: 5-HT2A % Act @ Max Dose; for EC50: agonist, HEK293
Summary of the method: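 Agonism measured as calcium flux on FLIPR Tetra. Receptor lines: HEK293 for 5-HT2A and 5-HT2B, CHO with Gα15 for 5-HT1A; dye loading with Fluo-4 Direct and probenecid (2.5 mM final) ran 50 min at 37 °C before compound addition and signal reading.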

in vitro [4] = type: in vitro ADME, human; details: for microsomal CLint: read-out: Intrinsic clearance (Clint); for half-life: read-out: half-life (t1/2)
5-HT1A receptor = biological target: T4, 5-HT1A receptor (Homo sapiens, UniProt P08908); assay: cell-based; details: agonist, Ca2+ flux; for Emax: CHO, CHO cells with Gα15, max dose, read-out: 5-HT1A % Act @ Max Dose; for EC50: CHO cells with Gα15
T4 construct: expressed in transfected cells; host or cells: CHO cells, stably transfected
T4 sequence (P08908 1-422): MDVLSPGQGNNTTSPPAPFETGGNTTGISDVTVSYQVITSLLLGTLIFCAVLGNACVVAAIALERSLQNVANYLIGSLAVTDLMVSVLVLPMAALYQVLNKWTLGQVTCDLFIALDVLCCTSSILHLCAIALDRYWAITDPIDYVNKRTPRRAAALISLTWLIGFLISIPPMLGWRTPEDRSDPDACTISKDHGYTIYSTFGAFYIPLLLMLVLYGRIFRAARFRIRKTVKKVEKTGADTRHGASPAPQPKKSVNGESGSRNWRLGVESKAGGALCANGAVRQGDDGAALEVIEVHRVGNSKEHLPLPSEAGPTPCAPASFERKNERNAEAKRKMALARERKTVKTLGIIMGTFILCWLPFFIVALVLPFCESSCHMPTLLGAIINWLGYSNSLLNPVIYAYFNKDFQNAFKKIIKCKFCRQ
Summary of the method: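 Using HEK293 lines for the 5-HT2 subtypes and Gα15-coupled CHO cells for 5-HT1A, compounds were tested as agonists. Fluorescent Ca2+ signal followed dye loading (Fluo-4 Direct, 2.5 mM final probenecid, 50 min, 37 °C).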

in vitro [5] = type: in vitro ADME, rat; details: for microsomal CLint: read-out: Intrinsic clearance (Clint); for half-life: read-out: half-life (t1/2)
Source text: RLM Stability Pooled RLM from male Sprague-Dawley rats (Xenotech R1000) were used.

[6] = mouse, microsomes, MLM (male CD-1) 0.50 mg/mL, NADPH 1 mM, 1 μM compound, pH 7.4, 37° C., 60 min
[7] = human, microsomes, HLM 0.50 mg/mL, NADPH 1 mM, 1 μM compound, pH 7.4, 37° C., 60 min
[8] = rat, microsomes, RLM (male Sprague-Dawley) 0.50 mg/mL, NADPH 1 mM, 1 μM compound, pH 7.4, 37° C., 60 min
[9] = MLM (male CD-1) 0.50 mg/mL, NADPH 1 mM, 1 μM compound, pH 7.4, 37° C., 60 min
[10] = HLM 0.50 mg/mL, NADPH 1 mM, 1 μM compound, pH 7.4, 37° C., 60 min
[11] = RLM (male Sprague-Dawley) 0.50 mg/mL, NADPH 1 mM, 1 μM compound, pH 7.4, 37° C., 60 min

T1 sequence (P28223 whole entry, the tested form may be a part): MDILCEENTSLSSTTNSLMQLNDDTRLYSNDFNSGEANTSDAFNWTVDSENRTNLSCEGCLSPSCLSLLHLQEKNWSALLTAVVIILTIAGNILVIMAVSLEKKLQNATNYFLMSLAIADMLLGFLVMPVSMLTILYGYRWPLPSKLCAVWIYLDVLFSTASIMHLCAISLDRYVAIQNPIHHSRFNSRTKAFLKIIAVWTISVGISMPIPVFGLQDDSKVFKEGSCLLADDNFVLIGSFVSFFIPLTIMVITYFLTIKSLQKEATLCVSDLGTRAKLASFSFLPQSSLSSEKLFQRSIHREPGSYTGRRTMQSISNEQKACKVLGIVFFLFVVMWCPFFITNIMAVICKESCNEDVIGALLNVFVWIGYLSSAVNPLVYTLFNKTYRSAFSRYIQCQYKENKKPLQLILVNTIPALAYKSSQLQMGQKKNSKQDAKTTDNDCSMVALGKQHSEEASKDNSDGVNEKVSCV

SMILES | EC50 (5-HT2A receptor [1]; agonist) [µM] | Emax (5-HT2A receptor [1]; agonist, max dose) [%] | EC50 (5-HT1B receptor) [µM] | Emax (5-HT1B receptor) [%] | Emax (5-HT2B receptor; HEK293, max dose) [%] | EC50 (5-HT2B receptor; agonist) [µM] | microsomal CLint (in vitro [2]; [6]) [µL/min/mg] | half-life (in vitro [2]; [6]) [min] | Emax (5-HT2A receptor [3]) [%] | EC50 (5-HT2A receptor [3]) [µM] | microsomal CLint (in vitro [4]; [7]) [µL/min/mg] | half-life (in vitro [4]; [7]) [min] | Emax (5-HT1A receptor) [%] | EC50 (5-HT1A receptor) [µM] | microsomal CLint (in vitro [5]; [8]) [µL/min/mg] | half-life (in vitro [5]; [8]) [min] | further results
CCN(CC)C(=O)[C@@H]1C=C2c3cccc4[nH]cc(c34)C[C@H]2N(Cc2cccc(O)c2)C1 [Compound 62, (6aR,9R)—N,N-diethyl-7-(3-hydroxybenzyl)-4,6,6a,7,8,9-hexahydroindolo[4,3-fg]quinoline-9-carboxamide] | 0.0109 | 58.4 | > 10 | 46.8 | 9.88 | > 100 | 244 | 5.7 | 81.5 | 0.907 | 134 | 10.3 | 22.7 | 12.6 | 214 | 6.5 | –
CC[C@@H](C)NC(=O)[C@@H]1C=C2c3cccc4[nH]cc(c34)C[C@H]2N(C)C1 [Int8] | – | 46.1 | – | – | 17.7 | – | – | – | 96.2 | – | – | – | 90.2 | – | – | – | 5-HT2A arrestin agonist class (5-HT2A receptor [1]): partial agonists; half-life (t1/2) (in vitro [2]; mouse, microsomes, pH 7.4): 39.9 min; half-life (t1/2) (in vitro [4]; human, microsomes, pH 7.4): 64.9 min; half-life (t1/2) (in vitro [5]; rat, microsomes, pH 7.4): 99.5 min
CCN(CC)C(=O)[C@@H]1C=C2c3cccc4[nH]cc(c34)C[C@H]2N(Cc2ccon2)C1 [Compound 70, (6aR,9R)—N,N-diethyl-7-(isoxazol-3-ylmethyl)-4,6,6a,7,8,9-hexahydroindolo[4,3-fg]quinoline-9-carboxamide] | – | – | > 10 | 17.8 | 34.4 | 0.449 | 154 | 9 | 84.7 | 0.038 | 54.3 | 25.5 | 58.6 | 62.3 | 47.9 | 28.9 | –
C=CCN1C[C@H](C(=O)N[C@H](C)CC)C=C2c3cccc4[nH]cc(c34)C[C@H]21 [Compound 8, (6aR,9R)-7-allyl-N—((R)-sec-butyl)-4,6,6a,7,8,9-hexahydroindolo[4,3-fg]quinoline-9-carboxamide] | – | 112 | – | – | 91.6 | – | – | – | 99.2 | – | – | – | 116 | – | – | – | 5-HT2A arrestin agonist class (5-HT2A receptor [1]): full agonists; stability in MLM (in vitro [2]): much lower stability (higher clearance); half-life (t1/2) (in vitro [2]; [9]): 3.7 min; stability in HLM (in vitro [4]): much lower stability (higher clearance); half-life (t1/2) (in vitro [4]; [10]): 7.9 min; stability in RLM (in vitro [5]): much lower stability (higher clearance); half-life (t1/2) (in vitro [5]; [11]): 7.7 min
CCN(CC)C(=O)[C@@H]1C=C2c3cccc4[nH]cc(c34)C[C@H]2N(Cc2cccc(C#N)c2)C1 [Compound 76, (6aR,9R)—N,N-diethyl-7-(3-cyanobenzyl)-4,6,6a,7,8,9-hexahydroindolo[4,3-fg]quinoline-9-carboxamide] | – | – | 1.49 | 93.4 | 0.93 | > 10 | 576 | 2.4 | 82.1 | 6.62 | 64.1 | 21.6 | 77 | 25.4 | 114 | 12.1 | –
CCN(CC)C(=O)[C@@H]1C=C2c3cccc4[nH]cc(c34)C[C@H]2N(Cc2cocn2)C1 [Compound 73, (6aR,9R)—N,N-diethyl-7-(oxazol-4-ylmethyl)-4,6,6a,7,8,9-hexahydroindolo[4,3-fg]quinoline-9-carboxamide] | – | – | 1.37 | 73.6 | 60.9 | 0.375 | 76.7 | 18.1 | 92.1 | 0.0476 | 45.6 | 30.4 | 78.7 | 0.586 | 51.8 | 26.8 | –
CCN(C)C(=O)[C@@H]1C=C2c3cccc4[nH]cc(c34)C[C@H]2N(Cc2ccccc2)C1 [Compound 85, (6aR,9R)-7-benzyl-N-ethyl-N-methyl-4,6,6a,7,8,9-hexahydroindolo[4,3-fg]quinoline-9-carboxamide] | – | – | – | – | 3.73 | > 10 | 184 | 7.5 | 60.6 | 0.5 | 95 | 14.6 | 36.8 | > 10 | 131 | 10.5 | –
CCN(CC)C(=O)[C@@H]1C=C2c3cccc4[nH]cc(c34)C[C@H]2N(CCc2ccccc2OC)C1 [Compound 11, (6aR,9R)—N,N-diethyl-7-(2-methoxyphenethyl)-4,6,6,7,8,9-hexahydroindolo[4,3-fg]quinoline-9-carboxamide] | – | – | – | – | – | – | – | – | – | – | – | – | – | – | – | – | 5-HT2A Arrestin % Act @ Max Dose (5-HT2A receptor [1]; agonist, max dose): 54.26%; 5-HT2B % Act @ Max Dose (5-HT2B receptor; agonist, HEK293, max dose): 2.5%; stability in MLM (in vitro [2]): much lower stability (higher clearance); Intrinsic clearance (Clint) (in vitro [2]; [9]): 1512.047 µL/min/mg; half-life (t1/2) (in vitro [2]; [9]): 0.917 min; stability in HLM (in vitro [4]): much lower stability (higher clearance); Intrinsic clearance (Clint) (in vitro [4]; [10]): 584.336 µL/min/mg; half-life (t1/2) (in vitro [4]; [10]): 2.372 min; stability in RLM (in vitro [5]): much lower stability (higher clearance); Intrinsic clearance (Clint) (in vitro [5]; [11]): 1195.423 µL/min/mg; half-life (t1/2) (in vitro [5]; [11]): 1.159 min
CCN(CC)C(=O)[C@@H]1C=C2c3cccc4[nH]cc(c34)C[C@H]2N(Cc2ccc(Cl)cc2)C1 [Compound 50, (6aR,9R)-7-(4-chlorobenzyl)-N,N-diethyl-4,6,6a,7,8,9-hexahydroindolo[4,3-fg]quinoline-9-carboxamide] | 0.0347 | 41.2 | > 10 | 41.9 | 2.94 | > 10 | – | – | 88.2 | 3.24 | 65 | 21.3 | 8.23 | > 10 | – | – | –
CCN(CC)C(=O)[C@@H]1C=C2c3cccc4[nH]cc(c34)C[C@H]2N(Cc2ccc(F)cc2)C1 [Compound 49, (6aR,9R)—N,N-diethyl-7-(4-fluorobenzyl)-4,6,6a,7,8,9-hexahydroindolo[4,3-fg]quinoline-9-carboxamide] | 0.00768 | 39.4 | > 10 | 37.9 | 3.58 | > 10 | – | – | 92.5 | 1.59 | 87.8 | 15.8 | 14.3 | > 10 | – | – | –
